{"source": "patent US5808087A", "about": "“Sulfonium salts of pyrrolylbenzimidazoles” (priority 1995, dated 1998)", "key": {"Mouse B16 melanoma cells": {"system": "Mouse B16 melanoma cells", "experiment": "In vitro tumor cell growth suppressing activity (Test Example 1)", "format": "cell-based", "conditions": "37° C., 3 days", "method": "Antitumor activity of the above-mentioned compounds was tested as follows. Mouse B16 melanoma cells were plated on a 96-well culture plate, test compounds were added to the cells one day after, and then the plate was incubated at 37° C. for 3 days under a 5%-CO2 atmosphere. According to the method described in Cancer Res. 48, 589-601, 1988, the concentrations of compounds required to inhibit cell growth by 50% were obtained. The activity is expressed by the concentrations (micrograms/milliliter). The result with distamycin is also shown for comparison."}, "[1]": {"system": "Colon 26 mouse colon cancer cells", "experiment": "In vivo antitumor activity, subcutaneously implanted Colon 26 (Test Example 2)", "set-up": "species or system mouse (female CDF1 mice)", "conditions": "Colon 26 s.c. in CDF1 mice, i.v. on day 1, tumors weighed day 15; for 50% T/C: 21600 min", "method": "A cell suspension of Colon 26 mouse colon cancer cells (1×10^7 cells/ml) in HBSS (Hanks' Balanced Salt Solution) was prepared. This cell suspension (0.1 ml each) was implanted subcutaneously into the lateral region of female CDF1 mice (day 0). One day after the tumor cell injection (day 1), the body weight of the mice was measured, and then solutions of test compounds (5% glucose solutions containing 5% Tween 80) were injected intravenously into the tails of the mice. On day 15, the resulting tumors were taken out and weighed.\nPercent average weights of tumors of animals in the test groups, in which the compounds were injected, with respect to those in the control group, in which no compounds were injected, were calculated and given as T/C values."}, "[2]": {"experiment": "Stability of compounds (1), remaining rate by HPLC after 3 days (Test Example 3)", "format": "physicochemical", "method": "In order to compare stabilities of the compounds, remaining rates of compounds were obtained by incubating the compounds at about 4° C. and 50° C. for 3 days and measuring comparative peak areas on HPLC (Table 4)."}, "[3]": {"experiment": "Stability of compounds (2), remaining rate by HPLC after one month at 60° C. (Test Example 4)", "format": "physicochemical", "method": "Stability of these compounds was investigated. As an index of stability, remaining rates of compounds were obtained by measuring remaining compounds after heating at 60° C. for one month. The remaining rates were measured by HPLC."}}, "data": [{"smiles": "Cn1cc(NC(=O)c2cc(NC(=O)c3cc(NC=O)cn3C)cn2C)cc1C(=O)NCCC(=N)N", "note": "[Distamycin, distamycin, reference compound]", "values": [{"measurement": "IC50", "setting": "Mouse B16 melanoma cells; Mus musculus, 72 h, read-out: 50% Suppressing Concentration", "result": 36, "unit": "µg/mL"}]}, {"smiles": "Cn1cc(NC(=O)CC[S+](C)C)cc1-c1nc2cc(C(=O)Nc3ccc(N(CCCl)CCCl)cc3)ccc2[nH]1", "note": "[1*^1]", "values": [{"measurement": "50% Suppressing Concentration", "setting": "Mouse B16 melanoma cells", "result": 0.71, "unit": "µg/mL"}, {"measurement": "50% T/C", "setting": "[1]", "result": 7.19, "unit": "mg/kg"}, {"measurement": "remaining at 72 h", "setting": "[2]; 50° C.", "result": 100, "unit": "%"}, {"measurement": "remaining at 730 h", "setting": "[3]", "result": 96.7, "unit": "%"}]}, {"smiles": "Cn1cc(NC(=O)CC[S+](C)C)cc1-c1nc2cc(C(=O)Nc3ccc(N(CCCl)CCCl)cc3)ccc2[nH]1", "note": "[IODIDE]", "values": [{"measurement": "remaining at 72 h", "setting": "[2]; 4° C.", "result": 99, "unit": "%"}, {"measurement": "Remaining rate", "setting": "[2]; 50° C., 4320 min", "result": 83, "unit": "%"}]}, {"smiles": "Cn1cc(NC(=O)CC[S+](C)C)cc1-c1nc2cc(C(=O)Nc3ccc(N(CCCl)CCCl)cc3)ccc2[nH]1", "note": "[25*^2]", "values": [{"measurement": "50% Suppressing Concentration", "setting": "Mouse B16 melanoma cells", "result": 0.99, "unit": "µg/mL"}, {"measurement": "50% T/C", "setting": "[1]", "result": 9.35, "unit": "mg/kg"}, {"measurement": "Remaining rate", "setting": "[3]; 43800 min", "result": 99.4, "unit": "%"}]}, {"smiles": "COc1cccc2c1C(=O)c1c(O)c3c(c(O)c1C2=O)C[C@@](O)(C(=O)CO)C[C@@H]3O[C@H]1C[C@H](N)[C@H](O)[C@H](C)O1", "note": "[Adriamycin, adriamycin, reference compound]", "values": [{"measurement": "ED50", "setting": "[1]; Mus musculus, iv, 360 h, read-out: 50% T/C", "result": 12.4, "unit": "mg/kg"}]}]}
